Data: US8461348B2, “Heterocyclic derivative and use thereof” (Takeda Pharmaceutical Company Limited, priority 2008, dated 2013)

Experiments:
Purified sGC = target: T1, Purified sGC (Homo sapiens, UniProt Q02153); assay: Measurement of sGC activation in vitro (cGMP production by purified sGC); format: biochemical; conditions: 20 min; test compound diluted to 30 μM, 10 μL/well plus equal volumes of sGC and GTP; 20 min at room temperature; cGMP without compound (1% DMSO) = 100%; read-out: cGMP amount (%) in experiment system
T1 sequence (Q02153 1-619): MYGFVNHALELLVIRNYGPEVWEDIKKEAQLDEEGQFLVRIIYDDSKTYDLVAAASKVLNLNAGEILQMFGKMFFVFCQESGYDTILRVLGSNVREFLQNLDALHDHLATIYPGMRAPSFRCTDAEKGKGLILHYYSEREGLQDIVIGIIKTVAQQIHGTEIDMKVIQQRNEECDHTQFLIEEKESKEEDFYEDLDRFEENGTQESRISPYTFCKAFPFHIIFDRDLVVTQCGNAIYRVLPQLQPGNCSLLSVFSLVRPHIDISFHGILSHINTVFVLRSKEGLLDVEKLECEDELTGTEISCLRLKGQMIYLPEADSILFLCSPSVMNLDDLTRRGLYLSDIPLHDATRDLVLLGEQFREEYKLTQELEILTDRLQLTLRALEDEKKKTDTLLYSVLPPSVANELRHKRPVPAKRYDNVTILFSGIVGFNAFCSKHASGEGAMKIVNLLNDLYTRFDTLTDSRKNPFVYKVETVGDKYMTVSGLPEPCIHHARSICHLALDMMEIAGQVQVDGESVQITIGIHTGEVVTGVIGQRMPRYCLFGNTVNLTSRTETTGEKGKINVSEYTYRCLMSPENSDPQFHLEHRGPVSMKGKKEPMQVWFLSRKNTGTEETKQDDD
T1 sequence (Q02108 1-690 partner): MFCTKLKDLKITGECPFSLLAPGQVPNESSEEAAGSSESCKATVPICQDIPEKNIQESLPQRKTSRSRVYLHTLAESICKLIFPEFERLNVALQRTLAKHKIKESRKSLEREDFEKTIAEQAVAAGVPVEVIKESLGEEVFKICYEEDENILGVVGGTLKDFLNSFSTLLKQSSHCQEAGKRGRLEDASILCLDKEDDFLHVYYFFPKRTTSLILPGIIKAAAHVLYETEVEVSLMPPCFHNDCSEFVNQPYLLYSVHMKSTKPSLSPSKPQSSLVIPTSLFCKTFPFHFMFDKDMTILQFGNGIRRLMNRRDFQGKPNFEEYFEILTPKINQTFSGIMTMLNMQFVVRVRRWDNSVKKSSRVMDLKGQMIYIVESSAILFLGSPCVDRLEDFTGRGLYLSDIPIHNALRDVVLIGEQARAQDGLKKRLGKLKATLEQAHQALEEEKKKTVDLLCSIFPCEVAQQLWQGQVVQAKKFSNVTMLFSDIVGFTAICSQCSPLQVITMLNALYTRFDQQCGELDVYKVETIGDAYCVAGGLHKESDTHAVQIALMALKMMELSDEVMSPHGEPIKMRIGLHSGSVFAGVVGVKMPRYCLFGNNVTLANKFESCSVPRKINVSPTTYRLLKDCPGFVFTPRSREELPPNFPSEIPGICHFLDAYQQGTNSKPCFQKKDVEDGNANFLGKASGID
Description: To evaluate sGC activation of each compound, the following in vitro tests were performed.
A test compound was diluted with a reaction buffer (50 mM HEPES, 5 mM MgCl2, 2 mM DTT, 0.5 mM IBMX (isobutylmethylxanthine), 0.01% BSA) to 30 μM (3% DMSO), and dispensed to a 384 well plate (manufactured by REMP) at 10 μL/well. Purified sGC was diluted with the reaction buffer to 240 ng/mL and added to the plate at 10 μL/well. Then, 120 μM GTP prepared with the reaction buffer was added to the reaction plate at 10 μL/well to initiate an enzyme reaction. After stirring at room temperature for 20 min to allow reaction, 125 mM Na2CO3 was added at 15 μL/well to quench the reaction. Thereafter, 125 mM Zn Acetate (zinc acetate) was added at 15 μL/well to allow precipitation of unreacted GTP. Then, the amount of the resulting cGMP contained in the supernatant was quantified using a CatchPoint cGMP assay kit (molecular devices). The method followed the protocol attached to the assay kit. For detection, Super Signal ELISA Femto (Thermo) was used, and the amount of luminescence was measured with ARVO (Perkinelmer). The sGC activity with addition of the compound was calculated using the amount of cGMP produced without addition of the compound (in the presence of 1% DMSO) as 100%.

male SHR = assay: Measurement of hypotensive action in vivo in SHR; parameters: species or system rat; conditions: single oral administration, 5 hr after administration
Description: Animal used was male SHR (32- to 40-week-old, SHR/Izm, Japan SLC, Inc.). Two days before drug administration, a cannula (SP10+SP45, Natsume Seisakusho Co., Ltd.) filled with heparin physiological saline (200 U/mL, Ajinomoto Pharma Co., Ltd.) was inserted from the femoral artery under anesthesia with pentobarbital Na (50 mg/kg, i.p., Kyoritsu Seiyaku Corporation) and dwelled. The other end of the cannula was subcutaneously passed and exposed on the back of the neck where it was fixed. After a recovery period, the artery dwelling cannula was connected to a pressure transducer (DTX Plus DT-XXAD, Japan Becton Dickinson) and output on a pen recorder (linear recorder WR3320-4µL, Graphtec Corporation) via a polygraph (AP-641G, Nihon Kohden Co.), and the blood pressure waveform was recorded. The heart rate was calculated from the blood pressure waveform. After stable blood pressure was obtained, a solvent or a drug was orally administered once, and average blood pressure and average heart rate were measured over time. The blood pressure was measured under fasting, and the rats were reared under free ingestion of feed and water except the blood pressure measurement day. The drug was suspended in 0.5% methylcellulose aqueous solution. The administration dose was 2 mL/kg.

Compound | activity at 10 µM (Purified sGC) | hypotension after 5 hr from the administration (male SHR; 30 mg/kg) | hypotension after 5 hr from the administration (male SHR; 10 mg/kg)
O=C(O)c1ccc(Cc2nc(-c3cccc(C(F)(F)F)c3F)cs2)cc1 [Example 186, 4-({4-[2-fluoro-3-(trifluoromethyl)phenyl]-1,3-thiazol-2-yl}methyl)benzoic acid] | > 1000% |  | 
O=C(O)c1cnn(-c2nc(-c3cccc(OC(F)(F)F)c3)cs2)c1C(F)(F)F [Ref. Ex. 10, 1-{4-[3-(trifluoromethoxy)phenyl]-1,3-thiazol-2-yl}-5-(trifluoromethyl)-1H-pyrazole-4-carboxylic acid] | > 1000% |  | 
O=C(O)c1ccc(Cc2nc(-c3cccc(C(F)(F)F)c3)cs2)cc1 [Example 178, 4-({4-[3-(trifluoromethyl)phenyl]-1,3-thiazol-2-yl}methyl)benzoic acid] | > 1000% | 15.8 mmHg | 
Cc1c(C(=O)O)cnn1Cc1nc(-c2cccc(C(F)(F)F)c2)cs1 [Example 13, 5-methyl-1-({4-[3-(trifluoromethyl)phenyl]-1,3-thiazol-2-yl}methyl)-1H-pyrazole-4-carboxylic acid] | > 1000% |  | 
O=C(O)c1cnn(Cc2nc(-c3cccc(C(F)(F)F)c3)cs2)c1 [Example 1, 1-({4-[3-(trifluoromethyl)phenyl]-1,3-thiazol-2-yl}methyl)-1H-pyrazole-4-carboxylic acid] | > 1000% | 15.5 mmHg | 
Cc1sc(-c2cccc(C(F)(F)F)c2F)nc1Cn1cc(C(=O)O)cn1 [Example 80, 1-({2-[2-fluoro-3-(trifluoromethyl)phenyl]-5-methyl-1,3-thiazol-4-yl}methyl)-1H-pyrazole-4-carboxylic acid] | > 1000% |  | 14.7 mmHg
O=C(O)c1cnn(Cc2nc(-c3cccc(C(F)(F)F)c3F)cs2)c1 [Example 52, 1-({4-[2-fluoro-3-(trifluoromethyl)phenyl]-1,3-thiazol-2-yl}methyl)-1H-pyrazole-4-carboxylic acid] | > 1000% | 29.4 mmHg | 
O=C(O)c1cnn(-c2nc(-c3ccc(Cl)c(Cl)c3)cs2)c1C1CC1 [Ref. Ex. 4, 5-cyclopropyl-1-[4-(3,4-dichlorophenyl)-1,3-thiazol-2-yl]-1H-pyrazole-4-carboxylic acid] | > 1000% |  | 
O=C(O)c1ccc(Cc2nc(-c3ccc(Cl)c(Cl)c3)cs2)cc1 [Example 179, 4-{[4-(3,4-dichlorophenyl)-1,3-thiazol-2-yl]methyl}benzoic acid] | > 1000% |  | 
O=C(O)c1cnn(Cc2csc(-c3cccc(C(F)(F)F)c3)n2)c1 [Example 21, 1-({2-[3-(trifluoromethyl)phenyl]-1,3-thiazol-4-yl}methyl)-1H-pyrazole-4-carboxylic acid] | > 1000% |  | 
FC(F)(F)c1cccc(-c2csc(Cn3cc(-c4nn[nH]n4)cn3)n2)c1 [Example 18, 5-[1-({4-[3-(trifluoromethyl)phenyl]-1,3-thiazol-2-yl}methyl)-1H-pyrazol-4-yl]-2H-tetrazole] | 503% |  | 
O=C(O)c1cnn(Cc2ncc(-c3cccc(C(F)(F)F)c3)s2)c1 [Example 23, 1-({5-[3-(trifluoromethyl)phenyl]-1,3-thiazol-2-yl}methyl)-1H-pyrazole-4-carboxylic acid] | 996% |  | 
Cc1cc(C(=O)O)nn1Cc1nc(-c2ccc(Cl)c(Cl)c2)cs1 [Example 6, 1-{[4-(3,4-dichlorophenyl)-1,3-thiazol-2-yl]methyl}-5-methyl-1H-pyrazole-3-carboxylic acid] | 420% |  | 
O=C(O)c1cnn(-c2nc(-c3ccc(Cl)s3)cs2)c1C(F)(F)F [Ref. Ex. 3, 1-[4-(5-chlorothiophen-2-yl)-1,3-thiazol-2-yl]-5-(trifluoromethyl)-1H-pyrazole-4-carboxylic acid] | > 1000% |  | 
O=C(O)c1cnn(-c2nc(-c3ccc(Cl)c(Cl)c3)cs2)c1C(F)(F)F [Ref. Ex. 1, 1-[4-(3,4-dichlorophenyl)-1,3-thiazol-2-yl]-5-(trifluoromethyl)-1H-pyrazole-4-carboxylic acid] | > 1000% |  | 
Cc1c(C(=O)O)cnn1-c1nc(-c2ccc(Cl)c(Cl)c2)cs1 [Ref. Ex. 5, 1-[4-(3,4-dichlorophenyl)-1,3-thiazol-2-yl]-5-methyl-1H-pyrazole-4-carboxylic acid] | > 1000% |  | 

Now from value to molecule, other results behind:

activity at 10 µM (Purified sGC) | Compound | hypotension after 5 hr from the administration (male SHR; 30 mg/kg) | hypotension after 5 hr from the administration (male SHR; 10 mg/kg)
> 1000% | O=C(O)c1cnn(-c2nc(Cc3cccc(C(F)(F)F)c3)cs2)c1C(F)(F)F [Ref. Ex. 25, 5-(trifluoromethyl)-1-{4-[3-(trifluoromethyl)benzyl]-1,3-thiazol-2-yl}-1H-pyrazole-4-carboxylic acid] |  | 
> 1000% | O=C(O)c1cnn(-c2nc(-c3ccc(Cl)c(Cl)c3)cs2)c1 [Ref. Ex. 17, 1-[4-(3,4-dichlorophenyl)-1,3-thiazol-2-yl]-1H-pyrazole-4-carboxylic acid] |  | 
766% | O=C(O)c1cnn(-c2nc(COc3ccc(Cl)c(Cl)c3)cs2)c1C(F)(F)F [Ref. Ex. 22, 1-[4-[(3,4-dichlorophenoxy)methyl]-1,3-thiazol-2-yl]-5-(trifluoromethyl)-1H-pyrazole-4-carboxylic acid] |  | 
> 1000% | O=C(Nc1cccc(Cl)c1)c1csc(-n2ncc(C(=O)O)c2C(F)(F)F)n1 [Ref. Ex. 20, 1-{4-[(3-chlorophenyl)carbamoyl]-1,3-thiazol-2-yl}-5-(trifluoromethyl)-1H-pyrazole-4-carboxylic acid] |  | 
> 1000% | FC(F)(F)c1c(-c2nn[nH]n2)cnn1-c1nc(-c2ccc(Cl)c(Cl)c2)cs1 [Ref. Ex. 18, 5-{1-[4-(3,4-dichlorophenyl)-1,3-thiazol-2-yl]-5-(trifluoromethyl)-1H-pyrazol-4-yl}-2H-tetrazole] |  | 
> 1000% | O=C(O)c1cnn(-c2nc(CCc3cccc(C(F)(F)F)c3)cs2)c1C(F)(F)F [Ref. Ex. 24, 5-(trifluoromethyl)-1-(4-{2-[3-(trifluoromethyl)phenyl]ethyl}-1,3-thiazol-2-yl)-1H-pyrazole-4-carboxylic acid] |  | 
> 1000% | CS(=O)(=O)NC(=O)c1cnn(-c2nc(-c3ccc(Cl)c(Cl)c3)cs2)c1C(F)(F)F [Ref. Ex. 19, 1-[4-(3,4-dichlorophenyl)-1,3-thiazol-2-yl]-N-(methylsulfonyl)-5-(trifluoromethyl)-1H-pyrazole-4-carboxamide] |  | 
